Laboratory results published in the supplement of paper PMC4858399.

Key:
[1] = tested on: Caenorhabditis elegans N2; test: lowest effective concentration for larval growth inhibition (size below effect threshold); higher = less potent; settings: exposure time 48 h
Outline: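 C. elegans N2 L1 larvae (50 per 96-well) were grown 48 h at 20°C in K-medium with killed bacteria, 1% DMSO and 0.5, 1, 5, 10, 50, 100 or 200 µM chemical. The Biosort measured per-worm extinction as size, and these were log-transformed into well means. The lowest effective concentration is the first dose where the plate-adjusted mean size drops under the 5.665 threshold and stays under it at higher doses.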

[2] = tested on: Caenorhabditis elegans N2; test: mean nematode size ln(EXT) after 48 h, plate-adjusted (DMSO control set to 6) (ln(EXT), control-adjusted); higher = larger nematodes / less growth inhibition; settings: exposure time 48 h
Outline: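 C. elegans N2 larvae, synchronised at L1, grew for 48 h at 20°C in K-medium with killed OP50, 1% DMSO and 0.5–200 µM chemical. Mean size per well was derived from natural-logged Biosort extinction after a growth model removed debris. Adjustment across plates involved subtracting the vehicle control mean and adding 6.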

SMILES | lowest effective concentration [1] | mean nematode size ln(EXT) (ln) ([2]; 0.5 µM) | mean nematode size ln(EXT) (ln) ([2]; 1 µM) | mean nematode size ln(EXT) (ln) ([2]; 5 µM) | mean nematode size ln(EXT) (ln) ([2]; 10 µM) | mean nematode size ln(EXT) (ln) ([2]; 50 µM) | mean nematode size ln(EXT) (ln) ([2]; 100 µM) | mean nematode size ln(EXT) (ln) ([2]; 200 µM)
O=C(Oc1ccccc1)c1cccc(C(=O)Oc2ccccc2)c1 [Diphenyl isophthalate] | > 200 µM | 5.87 | 5.89 | 5.87 | 5.87 | 5.94 | 5.94 | 5.7
CS(=O)(=O)OCCCCOS(C)(=O)=O [Busulfan] | > 200 µM | 5.98 | 5.93 | 5.94 | 5.95 | 5.98 | 5.94 | 5.8
CN(C)C(=S)S [Sodium dimethyldithiocarbamate] | > 200 µM | 5.93 | 5.79 | 5.88 | 5.82 | 5.85 | 5.81 | 5.69
COc1ccc2c(c1)c(CC(=O)O)c(C)n2C(=O)c1ccc(Cl)cc1 [Indomethacin] | > 200 µM | 6.03 | 5.93 | 5.95 | 5.96 | 5.93 | 5.93 | 5.83
CCCCN(CCCC)N=O [N-Nitrosodi-N-butylamine] | > 200 µM | 6.12 | 6.07 | 5.93 | 5.97 | 5.99 | 6.08 | 5.95
Nc1nc(=S)c2[nH]cnc2[nH]1 [6-Thioguanine] | > 200 µM | 5.81 | 5.79 | 5.86 | 5.8 | 5.78 | 5.86 | 5.72
COC(=O)c1ccc(I)cc1S(=O)(=O)NC(=O)Nc1nc(C)nc(OC)n1 [Iodosulfuron-methyl-sodium] | > 200 µM | 6.1 | 6.11 | 5.88 | 6.04 | 6.15 | 6.07 | 5.89
CCCCCCC(=O)OCC [Heptanoic acid, ethyl ester] | > 200 µM | 5.88 | 5.93 | 5.82 | 6.08 | 5.85 | 5.89 | 6.02
O=C1NC(=O)C(c2ccccc2)(c2ccccc2)N1 [5,5-Diphenylhydantoin] | > 200 µM | 5.94 | 5.99 | 5.92 | 5.94 | 5.91 | 5.88 | 5.78
COC(=O)CCCC(=O)OC [Dimethyl glutarate] | > 200 µM | 5.91 | 5.94 | 5.9 | 6.02 | 6.01 | 6.04 | 5.78
CC1=CC(=O)CC(C)(C)C1 [Isophorone] | > 200 µM | 5.84 | 5.72 | 5.76 | 5.71 | 5.75 | 5.94 | 5.79
CCOCCO [2-Ethoxyethanol] | > 200 µM | 5.85 | 5.79 | 5.75 | 5.64 | 5.72 | 5.89 | 5.79
CC(C)C1(C)N=C(c2nc3ccccc3cc2C(=O)O)NC1=O (centres undefined) [Imazaquin] | > 200 µM | 6.13 | 6.14 | 6.13 | 6.33 | 6.08 | 6.06 | 6.1
CCO[Si](CCCNC(N)=O)(OCC)OCC [3-Ureidopropyltriethoxysilane] | > 200 µM | 5.84 | 5.83 | 5.84 | 5.8 | 5.74 | 5.63 | 5.84
CC1(C)C(=O)N(Cl)C(=O)N1Cl [1,3-Dichloro-5,5-dimethylhydantoin] | > 200 µM | 5.81 | 5.79 | 5.79 | 5.82 | 5.83 | 5.8 | 5.67
CCCCC(CC)CO (centres undefined) [2-Ethyl-1-hexanol] | > 200 µM | 5.86 | 5.82 | 5.79 | 5.75 | 5.7 | 5.85 | 5.92
Cc1occc(=O)c1O [Maltol] | > 200 µM | 6.08 | 5.97 | 6.02 | 6.07 | 6 | 5.93 | 5.76
NCC1(Cc2noc(=O)[nH]2)CCCCC1 | > 200 µM | 5.77 | 5.69 | 5.76 | 5.73 | 5.69 | 5.72 | 5.7
COCCOCCO [Diethylene glycol monomethyl ether] | > 200 µM | 5.87 | 5.91 | 5.93 | 5.85 | 5.82 | 5.94 | 5.68
CC(=O)C1C(=O)C=C(C)OC1=O (centres undefined) [Sodium dehydroacetate] | > 200 µM | 5.99 | 5.95 | 5.97 | 5.86 | 5.94 | 5.93 | 5.72
O=S(=O)(O)c1ccc(N=Nc2c(O)ccc3cc(S(=O)(=O)O)ccc23)cc1 [FD&C Yellow no. 6] | > 200 µM | 5.95 | 5.86 | 5.74 | 5.85 | 5.89 | 5.91 | 5.84
O=C(O)CC(O)(CC(=O)O)C(=O)O [Citric acid] | > 200 µM | 5.85 | 6.03 | 6.03 | 5.9 | 5.99 | 5.63 | 5.73
C=CC(N)=O [Acrylamide] | 200 µM | 6 | 5.68 | 5.69 | 5.76 | 5.89 | 5.76 | 5.65
Nc1c(Cl)c(Cl)nc(C(=O)O)c1Cl [Picloram] | > 200 µM | 6.16 | 6.06 | 6.09 | 6.14 | 6.12 | 6.14 | 5.97
Cc1cccc2ccccc12 [1-Methylnaphthalene] | > 200 µM | 6.08 | 6.13 | 5.94 | 6.03 | 5.99 | 6.02 | 6.02
CCCCC(CC)COC(=O)c1ccccc1C(=O)OCC(CC)CCCC (centres undefined) [Diethylhexyl phthalate] | > 200 µM | 5.9 | 5.91 | 5.76 | 5.85 | 5.67 | 6.02 | 5.76
COCc1nnc(-c2ccc[n+]([O-])c2)n1-c1c(Cl)c(Cl)cc2[nH]c(=O)c(=O)[nH]c12 | > 200 µM | 5.89 | 6.15 | 6.22 | 6.24 | 6.17 | 6.08 | 5.67
CCOCCOCCOCCO [2-[2-(2-Ethoxyethoxy)ethoxy]ethanol] | > 200 µM | 5.96 | 5.89 | 5.95 | 5.94 | 5.91 | 5.9 | 5.83
